Reference: patent US7781460B2, “Substituted indazoles as inhibitors of phosphodiesterase type-IV” (Ranbaxy Laboratories Limited, priority 2005, dated 2010)
pIC50: −log10 of the molar value.

System: not given
Experiment: not given
Settings: not given

SMILES | melting point
CCc1nn(C2CCCC2)c2cc(C3=NOC(C)(c4noc(-c5ccc(Cl)cc5)n4)C3)ccc12 (stereo not shown) [Compound 11, 6-{5-[5-(4-Chlorophenyl)-1,2,4-oxadiazol-3-yl]-5-methyl-4,5-dihydroisoxazol-3-yl}-1-cyclopentyl-3-ethyl-1H-indazole] | 154 to 155 °C

System: TNF-α release from LPS-stimulated human peripheral blood mononuclear cells
Experiment: Cell based assay for TNF-α release (LPS stimulation of human PBMNC's)
Settings: PBMC; human PBMN cells, LPS 1 μg/ml, incubated overnight, ELISA; read-out: IC50, inhibition of TNF-α release
Procedure: Cell based Assay for TNF-α Release
Method of Isolation of Human Peripheral Blood Mononuclear Cells:
Human whole blood was collected in vacutainer tubes containing heparin or EDTA as an anti coagulant. The blood was diluted (1:1) in sterile phosphate buffered saline and 10 ml. was carefully layered over 5 ml Ficoll Hypaque gradient (density 1.077 g/ml) in a 15 ml conical centrifuge tube. The sample was centrifuged at 3000 rpm for 25 minutes in a swing-out rotor at room temperature. After centrifugation, interface of cells were collected, diluted at least 1:5 with PBS and washed three times by centrifugation at 2500 rpm for 10 minutes at room temperature. The cells were resuspended in serum free RPMI 1640 medium at a concentration of 2 million cells/ml. Alternatively whole blood was used.
LPS Stimulation of Human PBMNC's:
PBMN cells (0.1 ml; 2 million/ml) were co-incubated with 20 μl of compound (final DMSO concentration of 0.2%) for 10 min in a flat bottom 96 well microtiter plate. Compounds were dissolved in DMSO initially and diluted in medium for a final concentration of 0.2% DMSO. LPS (1 μg/ml, final concentration) was then added at a volume of 10 μl per well. After 30 min, 20 μl of fetal calf serum (final concentration of 10%) was added to each well. Cultures were incubated overnight at 37° C. in an atmosphere of 5% CO2 and 95% air. Supernatant were then removed and tested by ELISA for TNF-α release using a commercial kit (e.g. BD Biosciences). For whole blood, the plasma samples were diluted 1:20 for ELISA. The level of TNF-α in treated wells was compared with the vehicle treated controls and inhibitory potency of compound was expressed as IC50 values calculated by using Graph pad prism.

SMILES | pIC50
Cc1nn(C2CCCC2)c2cc(C3=NOC(C)(C#N)C3)ccc12 (stereo not shown) [Compound 2, 3-(1-Cyclopentyl-3-methyl-1H-indazol-6-yl)-5-methyl-4,5-dihydroisoxazole-5-carbonitrile] | 5.00 to 5.38
CCc1nn(C2CCCC2)c2cc(C3=NOC(C)(C#N)C3)ccc12 (stereo not shown) [Compound 3, 3-(1-Cyclopentyl-3-ethyl-1H-indazol-6-yl)-5-methyl-4,5-dihydroisoxazole-5-carbonitrile] | 5.00 to 5.38
Cc1nn(C2CCCC2)c2cc(C3=NOC(C)(c4nc(-c5cc(F)ccc5F)no4)C3)ccc12 (stereo not shown) [Compound 23, 1-Cyclopentyl-6-{5-[3-(2,5-difluorophenyl)-1,2,4-oxadiazol-5-yl]-5-methyl-4,5-dihydroisoxazol-3-yl}-3-methyl-1H-indazole] | 5.00 to 5.38
CCc1nn(C2CCCC2)c2cc(C3=NOC(C)(c4nc(-c5cc(Cl)ccc5Cl)no4)C3)ccc12 (stereo not shown) [Compound 31, 1-Cyclopentyl-6-{5-[3-(2,5-dichlorophenyl)-1,2,4-oxadiazol-5-yl]-5-methyl-4,5-dihydroisoxazol-3-yl}-3-ethyl-1H-indazole] | 5.00 to 5.38
CCc1nn(C2CCCC2)c2cc(C3=NOC(C)(c4nc(-c5cc(F)ccc5F)no4)C3)ccc12 (stereo not shown) [Compound 32, 1-Cyclopentyl-6-{5-[3-(2,5-difluorophenyl)-1,2,4-oxadiazol-5-yl]-5-methyl-4,5-dihydroisoxazol-3-yl}-3-ethyl-1H-indazole] | 5.00 to 5.38
COc1ccc(C2CNC(=O)C2)cc1OC1CCCC1 (stereo not shown) [rolipram, reference compound] | 5.92
